Two compounds from paper PMC4291487, “Stress-induced ceramide generation and apoptosis via the phosphorylation and activation of nSMase1 by JNK signaling” (Cell Death and Differentiation, 2014) can be followed below.

Positions count from the first letter of the chain named.

Common to all, as to type: biochemical
One assay addresses T1, mouse JNK1 (Mus musculus, UniProt Q91Y86).
T1 construct: gene Mapk8; commercial recombinant protein (Cell Signaling Technology)
To be noted: 10 μM SP600125; 0.25 mM ATP, 10 mM MgCl2, pH 7.4, 30 °C, 30 min.

Assay [1] addresses T2, nSMase1 (wild-type), zebrafish (Danio rerio, UniProt F1QUD7).
T2 construct: gene smpd2a; zebrafish cDNA
T2 sequence (F1QUD7 1-421): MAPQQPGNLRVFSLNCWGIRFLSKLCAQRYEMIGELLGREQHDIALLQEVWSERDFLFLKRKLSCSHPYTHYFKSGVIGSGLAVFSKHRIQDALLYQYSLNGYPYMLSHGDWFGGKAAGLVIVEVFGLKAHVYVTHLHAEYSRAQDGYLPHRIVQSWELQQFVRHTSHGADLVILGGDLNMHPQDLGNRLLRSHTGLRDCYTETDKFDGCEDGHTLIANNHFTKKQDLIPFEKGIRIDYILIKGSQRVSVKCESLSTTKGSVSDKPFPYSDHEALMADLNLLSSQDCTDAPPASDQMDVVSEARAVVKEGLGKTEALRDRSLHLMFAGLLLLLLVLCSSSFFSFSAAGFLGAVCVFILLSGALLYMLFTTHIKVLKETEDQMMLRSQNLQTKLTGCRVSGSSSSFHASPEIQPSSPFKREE
The assay can be described thus: C6-NBD-ceramide release assay. To be noted: 37 °C; basal enzyme, not JNK-treated.

Assay [2] concerns the target T3, nSMase1 (wild-type), zebrafish (Danio rerio, UniProt F1QUD7, S270A).
T3 construct: gene smpd2a; zebrafish cDNA
T3 sequence (F1QUD7 1-421 S270A): T2 sequence (F1QUD7 1-421) with S270A
The assay can be described thus: C6-NBD-ceramide release assay. To be noted: 37 °C; basal enzyme, not JNK-treated.

T1 sequence (Q91Y86 whole entry): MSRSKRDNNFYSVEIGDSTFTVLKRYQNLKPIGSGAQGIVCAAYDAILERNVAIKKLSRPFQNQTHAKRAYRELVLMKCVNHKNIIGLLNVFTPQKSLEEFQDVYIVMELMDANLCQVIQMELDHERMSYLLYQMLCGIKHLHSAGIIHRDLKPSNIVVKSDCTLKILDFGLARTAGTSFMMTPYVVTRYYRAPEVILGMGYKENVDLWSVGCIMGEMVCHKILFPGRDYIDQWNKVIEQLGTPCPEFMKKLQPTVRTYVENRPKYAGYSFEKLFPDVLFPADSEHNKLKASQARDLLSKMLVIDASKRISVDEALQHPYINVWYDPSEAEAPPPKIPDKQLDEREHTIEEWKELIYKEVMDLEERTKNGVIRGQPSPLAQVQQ

For the compound `O=C1c2ccccc2-c2n[nH]c3cccc1c23` [SP600125, Anthra[1,9-cd]pyrazol-6(2H)-one], the “phosphorylation inhibition at 10 μM” value on mouse JNK1 is recorded as “wild-type pulsed with SP600125 were not phosphorylated”.
Turning to `CCCCCCCCCCCCC/C=C/[C@@H](O)[C@H](COP(=O)([O-])OCC[N+](C)(C)C)NC(=O)CCCCCNc1ccc([N+](=O)[O-])c2nonc12` [C6-NBD-sphingomyelin], the C6-NBD-ceramide release assay result in assay [1] and in assay [2] was “nSMase activities of the recombinant proteins were determined using C6-NBD-sphingomyelin” throughout.
